Our source for the Ki values is ChEMBL document CHEMBL1131973, “Asymmetric synthesis of novel quaternary alpha-hydroxy-delta-lactam dipeptide surrogates” (Bioorg Med Chem Lett, 1999).

pKi: −log10 of the molar value.

The target in the assay is Prothrombin (Homo sapiens, UniProt P00734).
In the case of `N=C(N)N1CCC[C@H](NC(=O)CN2CCC[C@@](N)(Cc3ccccc3)C2=O)C1O` (stereo partly drawn), the pKi – broadly, the negative decadic logarithm of the Ki, by convention in mol/L – is 9.00.
Molecule `CCOC(=O)[C@]1(NS(=O)(=O)Cc2ccccc2)CCCN(CC(=O)N[C@H]2CCCN(C(=N)N)C2O)C1=O` (stereo partly drawn) gave a negative-log Ki (pKi) of 9.00.
With `N=C(N)N1CCC[C@H](NC(=O)CN2CCC[C@H](NS(=O)(=O)Cc3ccccc3)C2=O)C1O` (stereo partly drawn) the figure was 9.00.
